Measurements published in BindingDB's records for doi:10.1021/jm0100537 (Glaxosmithkline, 2001).

How the values were obtained:
Experiment in all cases: Caspase Inhibition Assay
Caspase-3 = target: T1, Caspase-3 (Homo sapiens, UniProt P42574)
T1 sequence (P42574 whole entry): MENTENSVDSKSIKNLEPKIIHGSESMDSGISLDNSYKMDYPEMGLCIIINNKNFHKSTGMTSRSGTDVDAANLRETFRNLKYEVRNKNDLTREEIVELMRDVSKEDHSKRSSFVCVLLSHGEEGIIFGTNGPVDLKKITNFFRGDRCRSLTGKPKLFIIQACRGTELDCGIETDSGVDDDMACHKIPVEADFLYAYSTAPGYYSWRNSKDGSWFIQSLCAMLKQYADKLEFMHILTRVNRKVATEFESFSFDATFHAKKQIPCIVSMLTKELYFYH

Caspase-9 = target: T2, Caspase-9 (Homo sapiens, UniProt P55211)
T2 sequence (P55211 whole entry): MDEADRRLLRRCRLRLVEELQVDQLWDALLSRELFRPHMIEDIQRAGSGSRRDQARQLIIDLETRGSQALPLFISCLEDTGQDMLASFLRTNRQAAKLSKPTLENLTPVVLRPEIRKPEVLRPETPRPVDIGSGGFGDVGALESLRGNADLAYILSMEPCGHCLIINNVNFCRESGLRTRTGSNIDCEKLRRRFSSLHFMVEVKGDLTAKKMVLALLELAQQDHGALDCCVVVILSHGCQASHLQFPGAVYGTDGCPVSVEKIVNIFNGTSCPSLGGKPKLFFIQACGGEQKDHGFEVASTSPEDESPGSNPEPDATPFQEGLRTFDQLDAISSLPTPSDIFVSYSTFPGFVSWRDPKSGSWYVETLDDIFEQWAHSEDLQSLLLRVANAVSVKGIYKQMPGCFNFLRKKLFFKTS

Caspase-2 = target: T3, Caspase-2 (Homo sapiens, UniProt P42575)
T3 sequence (P42575 whole entry): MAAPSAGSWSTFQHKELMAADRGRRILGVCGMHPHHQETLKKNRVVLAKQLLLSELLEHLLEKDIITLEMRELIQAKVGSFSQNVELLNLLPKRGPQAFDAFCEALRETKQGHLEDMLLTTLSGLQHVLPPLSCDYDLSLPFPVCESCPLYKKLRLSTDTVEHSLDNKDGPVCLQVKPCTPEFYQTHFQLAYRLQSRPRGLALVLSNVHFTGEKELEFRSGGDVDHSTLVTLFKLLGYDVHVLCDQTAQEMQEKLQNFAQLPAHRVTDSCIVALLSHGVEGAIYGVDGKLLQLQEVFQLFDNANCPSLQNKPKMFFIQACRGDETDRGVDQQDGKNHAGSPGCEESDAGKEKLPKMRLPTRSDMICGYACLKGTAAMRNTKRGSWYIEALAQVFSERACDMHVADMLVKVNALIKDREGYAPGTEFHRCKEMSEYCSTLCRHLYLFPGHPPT

Caspase-8 = Caspase-8 (Homo sapiens, UniProt Q14790)
Caspase-8, sequence (Q14790 217-374 limits assumed): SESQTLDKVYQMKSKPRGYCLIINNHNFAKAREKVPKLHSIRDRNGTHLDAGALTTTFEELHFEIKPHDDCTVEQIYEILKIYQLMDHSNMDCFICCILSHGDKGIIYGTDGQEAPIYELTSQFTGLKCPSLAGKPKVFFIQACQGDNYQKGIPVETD
Caspase-8, sequence (Q14790 385-479 limits assumed): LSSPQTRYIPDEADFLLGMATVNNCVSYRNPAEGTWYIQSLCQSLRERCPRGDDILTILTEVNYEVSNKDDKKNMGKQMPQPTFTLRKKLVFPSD

Caspase-7 = target: T4, Caspase-7 (Homo sapiens, UniProt P55210)
T4 sequence (P55210 whole entry): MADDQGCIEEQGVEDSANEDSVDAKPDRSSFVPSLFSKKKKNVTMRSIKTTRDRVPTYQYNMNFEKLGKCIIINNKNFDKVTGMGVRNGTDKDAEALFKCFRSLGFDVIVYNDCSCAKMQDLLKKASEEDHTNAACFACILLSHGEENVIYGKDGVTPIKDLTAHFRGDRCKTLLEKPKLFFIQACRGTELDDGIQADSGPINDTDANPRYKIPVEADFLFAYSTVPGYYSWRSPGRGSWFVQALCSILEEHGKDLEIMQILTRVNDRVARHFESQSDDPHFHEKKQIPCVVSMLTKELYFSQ

Caspase-4 = target: T5, Caspase-4 (Homo sapiens, UniProt P49662)
T5 sequence (P49662 whole entry): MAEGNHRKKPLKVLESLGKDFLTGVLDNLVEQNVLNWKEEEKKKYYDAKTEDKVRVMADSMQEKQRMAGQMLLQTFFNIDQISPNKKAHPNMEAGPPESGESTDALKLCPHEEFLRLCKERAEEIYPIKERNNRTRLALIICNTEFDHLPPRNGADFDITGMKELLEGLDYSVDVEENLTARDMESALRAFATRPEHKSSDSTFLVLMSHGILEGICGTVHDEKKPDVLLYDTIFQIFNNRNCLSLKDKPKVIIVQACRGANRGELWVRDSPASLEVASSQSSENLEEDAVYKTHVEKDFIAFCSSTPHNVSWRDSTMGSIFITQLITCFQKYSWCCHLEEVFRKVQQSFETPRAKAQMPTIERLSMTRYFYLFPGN

Caspase-1 = target: T6, Caspase-1 (Homo sapiens, UniProt P29466)
T6 sequence (P29466 whole entry): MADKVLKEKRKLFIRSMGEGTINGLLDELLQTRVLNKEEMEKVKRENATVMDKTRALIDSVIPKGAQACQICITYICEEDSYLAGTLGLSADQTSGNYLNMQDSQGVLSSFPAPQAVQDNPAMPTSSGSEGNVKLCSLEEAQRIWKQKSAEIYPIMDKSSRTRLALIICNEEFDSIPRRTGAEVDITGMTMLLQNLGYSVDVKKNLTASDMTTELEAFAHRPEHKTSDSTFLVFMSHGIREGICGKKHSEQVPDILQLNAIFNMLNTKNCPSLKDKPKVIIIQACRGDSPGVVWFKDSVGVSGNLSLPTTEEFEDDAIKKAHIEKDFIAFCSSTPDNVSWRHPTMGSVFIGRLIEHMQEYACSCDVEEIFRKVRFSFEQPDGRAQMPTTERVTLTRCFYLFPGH

Caspase-6 = target: T7, Caspase-6 (Homo sapiens, UniProt P55212)
T7 sequence (P55212 whole entry): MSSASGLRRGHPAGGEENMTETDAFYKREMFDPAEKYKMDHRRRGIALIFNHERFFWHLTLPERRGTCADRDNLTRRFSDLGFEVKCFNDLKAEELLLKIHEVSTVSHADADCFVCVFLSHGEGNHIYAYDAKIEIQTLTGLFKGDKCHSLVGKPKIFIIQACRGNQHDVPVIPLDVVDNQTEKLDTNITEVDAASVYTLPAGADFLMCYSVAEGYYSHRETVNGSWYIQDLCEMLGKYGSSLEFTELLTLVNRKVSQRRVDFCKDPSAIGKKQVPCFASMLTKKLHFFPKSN

**Q.** With `O=C1Nc2ccc([N+](=O)[O-])cc2C1=O` [5-nitro-2,3-dihydro-1H-indole-2,3-dione] as the molecule, how does the IC50 (Caspase-3; pH 7.5, 30 °C) read?
**A.** The IC50 was 3 µM.

**Q.** Which results are given for `O=C1Nc2ccc(S(=O)(=O)N3CCC[C@@H]3CNc3ccccc3)cc2C1=O` [5-{[(2R)-2-[(phenylamino)methyl]pyrrolidine-1-]sulfonyl}-2,3-dihydro-1H-indole-2,3-dione]?
**A.** Ki (Caspase-9): > 50 µM; Ki (Caspase-2): 11 µM; Ki (Caspase-8): > 50 µM; Ki (Caspase-7): 10 µM; Ki (Caspase-4): > 50 µM; Ki (Caspase-1): > 50 µM; IC50 (Caspase-3): 5.5 µM; Ki (Caspase-3): 12 µM; Ki (Caspase-6): 57 µM

**Q.** How did the IC50 (Caspase-3) turn out when `O=C1Nc2ccc(S(=O)(=O)N3CCC[C@H]3C(=O)Nc3ccccc3)cc2C1=O` [(2S)-1-[(2,3-dioxo-2,3-dihydro-1H-indole-5-)sulfonyl]-N-phenylpyrrolidine-2-carboxamide] was run?
**A.** Its IC50 is 0.14 µM.

**Q.** How did the IC50 (Caspase-3) turn out when `CN1C(=O)C(=O)c2cc(S(=O)(=O)N3CCC[C@H]3COc3ccccc3)ccc21` [(S)-1-Methyl-5-{1-[2-(phenoxymethyl)pyrrolidinyl]sulfonyl}isatin] was run?
**A.** Its IC50 is 0.03 µM.
